# Results as given in patent US7736899B1, “Cells and method for producing proteins comprising an unconventional amino acid” (priority 1998, dated 2010).
# Experiments:
# Assay type in all cases: cell-based, E. coli
# [1] = test system: strain β5366 (thyA:Val146); test: Growth on cysteine diffusion gradient in Petri dishes
# Description: (§1) The plasmid pTS1 thus obtained propagates the thyA:Val146 allele, in which position 146 occupied in the wild-type thyA gene by the UGC codon of cysteine is occupied by the GUA codon of valine. The plasmid pTS1 is introduced by transformation, carried out according to the method of Sambrook et al. (1989), into the E. coli K12 ΔthyA strain, β1308 (Lemeignan et al., 1993), in which the chromosomal thymidylate synthase gene, thyA, is deleted. The transformed strain carrying the thyA:Val146 plasmid allele, β5366, is shown to be incapable of growing without thymine or thymidine being added to the culture medium, as is the strain β1308 from which it derives. […] Thus, it is as though the cysteine can infiltrate into the valyl-tRNA synthetase active site to form erroneous Cys-tRNAs^Val capable of correcting the substitution of the cysteine in the thymidylate synthase active site, with valine. The excess of valine would prevent the formation of these erroneous Cys-tRNAs^Val.
# [2] = test system: strain β1308 (ΔthyA); test: as above; details: 30° C., glucose MS mineral medium, central well 0.1 ml of 400 mM L-cysteine
# Description: as §1
# [3] = test system: twelve clones derived from strain β5366; test: Growth factor test of clones from serial culture on plates with nutrient factors; details: glucose MS mineral medium plates
# Method: The strain β5366 carrying the thyA:Val146 missense allele on the plasmid pTS1 is cultured in glucose MS mineral medium (2 g/l, Richaud et al., 1993) supplemented with 0.3 mM of thymidine, for 24 h at 30° C. in aerobiosis. The cells are then washed twice with deoxygenated MS mineral medium. A deoxygenated nutrient medium containing 10 ml of glucose MS mineral medium supplemented with 1.5 mM of cysteine is inoculated at 1/100 using the washed cells. The cells are then cultured in anaerobiosis for 24 h at 30° C., and a fresh tube containing 10 ml of deoxygenated cysteine glucose MS mineral medium is inoculated with a 1/100 dilution of the previous culture in the stationary phase. This procedure is repeated 26 times. At the end of this serial propagation, 12 clones from the liquid culture are isolated on plates containing thymidine (0.3 mM) glucose (2 g/l) MS mineral medium, in aerobiosis, and stored in suspension in the same liquid medium at −80° C. The twelve clones are tested on plates containing glucose MS mineral medium supplemented with nutrient factors. All these clones are shown to require thymine or thymidine as a growth factor, unless cysteine is present in the culture medium, at a concentration of at least 1.5 mM.
# [4] = test system: modified strain β8144; test: Phenotypic suppression by metabolic precursors of cysteine (growth factor replacement)
# Description: (§2) The nutrient requirement for cysteine of the modified strains β8144 and β8146 is exploited in order to characterize metabolic precursors which may substitute for cysteine in the culture medium without giving rise to degradation by oxidation. […] However, the addition of none of these substances allows growth of the strain β1308 carrying a chromosomal deletion of the thyA gene of thymidylate synthase, thus excluding their contamination with traces of thymine or of thymidine.
# [5] = test system: modified strain β8146; test: as above
# Description: as §2
# [6] = test system: strain β5455 (valS T222P); test: Zone of growth inhibition on Petri dishes, sensitivity to noncanonical amino acids; details: 24 h at 30° C.
# Method: (§3) The strains β5455, β8144 and β8146 are tested for their sensitivity to artificial amino acids which show steric resemblance to valine. The test is carried out on dishes containing glucose of MS mineral medium supplemented with thymidine. The cells are cultured in aerobic medium (glucose MS mineral medium, 0.3 mM thymidine) for 24 h at 30° C. and diluted to 1/250 in MS mineral medium. 0.5 ml of this cell suspension is plated out onto Petri dishes containing 25 ml of glucose MS mineral medium. A well is then hollowed out at the center of the dish and filled with 0.1 ml of an amino acid solution:
# (§4) The dishes are then incubated for 24 h at 30° C. and the possible appearance on the dishes of a zone of inhibition around the well is recorded. The diameters of the limited zones of growth inhibition on Petri dishes are measured: […]
# [7] = test system: strain β8146 (mutated valS); test: as above; details: 24 h at 30° C.
# Method: as §3, §4
# [8] = test system: strain β8144 (mutated valS); test: as above; details: 24 h at 30° C.
# Method: as §3, §4
# [9] = test system: strain β5366 (wild-type valS allele); test: as above; details: 24 h at 30° C.; for effect on growth (zone of inhibition): central well with 0.1 ml of 100 mM amino acid solution
# [10] = test system: strain β5274 (thyA:Ile146); test: Phenotypic suppression by cysteine of thyA:Ile146 strain; details: 0.1 mM
# Method: The plasmid pTS2 thus obtained propagates the thyA:Ile146 allele in which position 146 occupied in the wild-type thyA gene by the UGC codon of cysteine is occupied by the AUA codon of isoleucine. The strain which propagates the thyA:Ile146 plasmid allele, β5274, is shown to require the nutritional supply of thymine, of thymidine or of cysteine in excess, as was the strain β5366. The phenotypic suppression of the strain β5274 by the cysteine is abolished with 0.1 mM of isoleucine, as was that of the strain β5366 with valine. Thus, it is as though the isoleucyl-tRNA synthetase is capable of forming erroneous Cys-tRNAs^Ile in the presence of an excess of cysteine, and that this erroneous formation is prevented by the presence of an excess of isoleucine.
# [11] = central well with 0.1 ml of 50 mM amino acid solution
# [12] = central well with 0.1 ml of 100 mM amino acid solution
compound,measurement,setting,value
N[C@@H](CS)C(=O)O [L-cysteine],growth on cysteine diffusion gradient,"[1]; 30° C., glucose MS mineral medium, central well 0.1 ml of 400 mM L-cysteine",marginal growth
same,growth on cysteine diffusion gradient,[2],no detectable growth
same,cysteine concentration that replaces thymine or thymidine as growth factor,[3],at least 1.5 mM
O=C(O)[C@@H]1CSCN1 [L-thiazolidine-4-carboxylic acid],replacement of cysteine as growth factor instead of thymidine or thymine,[4]; 2 mM in culture medium,capable of replacing cysteine as a growth factor
same,replacement of cysteine as growth factor instead of thymidine or thymine,[5]; 2 mM in culture medium,capable of replacing cysteine as a growth factor
CC(S)[C@H](N)C(=O)O (stereo partly drawn) [L-3-thiol-2-aminobutyrate],diameter of zone of growth inhibition,[6]; [11],4.6 cm
same,diameter of zone of growth inhibition,[7]; [11],4.0 cm
same,diameter of zone of growth inhibition,[8]; [11],4.0 cm
same,diameter of zone of growth inhibition,[9]; [11],2.0 cm
CC[C@H](C)[C@H](N)C(=O)O [isoleucine],effect on phenotypic suppression by cysteine,[10],abolished
"NC[C@H](N)C(=O)O [L-2,3-diaminopropionate]",diameter of zone of growth inhibition,[6]; [12],2.3 cm
same,diameter of zone of growth inhibition,[7]; [12],1.9 cm
same,diameter of zone of growth inhibition,[8]; [12],2.7 cm
same,effect on growth (zone of inhibition),[9],no effect
CCC[C@H](N)C(=O)O [L-2-aminovalerate],diameter of zone of growth inhibition,[6]; [12],2.1 cm
same,diameter of zone of growth inhibition,[7]; [12],6.7 cm
same,diameter of zone of growth inhibition,[8]; [12],1.5 cm
same,effect on growth (zone of inhibition),[9],no effect
NC(=O)SC[C@H](N)C(=O)O [S-carbamyl-L-cysteine],replacement of cysteine as growth factor instead of thymidine or thymine,[4]; 3 mM in culture medium,capable of replacing cysteine as a growth factor
same,replacement of cysteine as growth factor instead of thymidine or thymine,[5]; 3 mM in culture medium,capable of replacing cysteine as a growth factor
CC(C)[C@H](N)C(=O)O [valine],effect on growth on a cysteine gradient,[1]; 0.1 mM added to the medium of the Petri dishes,abolishes the growth
CSC[C@H](N)C(=O)O [S-methyl-L-cysteine],replacement of cysteine as growth factor instead of thymidine or thymine,[4]; 3 mM in culture medium,capable of replacing cysteine as a growth factor
same,replacement of cysteine as growth factor instead of thymidine or thymine,[5]; 3 mM in culture medium,capable of replacing cysteine as a growth factor
L-2-aminobutyrate,diameter of zone of growth inhibition,[6]; [12],5.2 cm
same,diameter of zone of growth inhibition,[7]; [12],6.7 cm
same,diameter of zone of growth inhibition,[8]; [12],5.7 cm
same,effect on growth (zone of inhibition),[9],no effect
